Values of other authors as cited in patent publication US10016426B2, “Pharmaceutical compositions for substituted quinazolinones” (Resverlogix Corp., priority 2011, dated 2018).

Tests used:
[1] = test system: HDL-C level; settings: subjects with low HDL-C; Rubins et al. (1999)
[2] = following oral administration; Gugler et al. (1975)

Row | intestinal absorption [2] | SMILES | increase in the HDL-C level [1] [%] | reduction of the CHD risk [1] [%]
1 |  | Cc1ccc(C)c(OCCCC(C)(C)C(=O)O)c1 [gemfibrozil] | 6 | 22
2 | less than 1% | O=c1c(O)c(-c2ccc(O)c(O)c2)oc2cc(O)cc(O)c12 [quercetin] |  | 
